# Measurements reported in US8362000B2, “Azetidinyl diamides as monoacylglycerol lipase inhibitors” (Janssen Pharmaceutica NV, priority 2009, dated 2013).
# Numbering of substitutions follows the chain as printed. Read-outs that look alike come from different tables or passages of the source.
# Tests used:
# [1] = target: T1, MGL (Rattus norvegicus, UniProt Q8R431); assay: 2-AG accumulation assay in rat brain homogenate; type: biochemical; conditions: rat brain homogenate, 2-AG accumulation as percent of vehicle; for 2-AG accumulation, % of vehicle control at 1 µM: compound 1 μM, read-out: Rat Brain 2AG % VehCntrl (%) @ 1 μM; for 2-AG accumulation, % of vehicle control at 10 µM: compound 10 μM, read-out: Rat Brain 2AG % VehCntrl (%) @ 10 μM; for 2-AG accumulation, % of vehicle control at 0.1 µM: compound 0.1 μM, read-out: Rat Brain 2AG % VehCntrl (%) @ 0.1 μM
# T1 construct: one g rat brain was homogenized using a Polytron homogenizer; from tissue; host or cells: rat brain homogenate
# T1 sequence (Q8R431 1-303): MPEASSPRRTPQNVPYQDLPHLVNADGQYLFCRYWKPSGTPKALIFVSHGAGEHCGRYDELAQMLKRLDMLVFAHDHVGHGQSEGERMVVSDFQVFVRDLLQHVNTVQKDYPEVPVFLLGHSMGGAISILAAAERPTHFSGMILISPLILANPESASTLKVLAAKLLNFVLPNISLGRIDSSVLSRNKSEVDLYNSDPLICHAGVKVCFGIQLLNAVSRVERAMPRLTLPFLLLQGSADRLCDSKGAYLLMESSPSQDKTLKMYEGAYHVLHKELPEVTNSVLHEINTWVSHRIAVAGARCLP
# [2] = target: T2, purified wild type MGL (wt-MGLL 6H-11-313) (Homo sapiens, UniProt Q99685)
# T2 sequence (Q99685 1-303): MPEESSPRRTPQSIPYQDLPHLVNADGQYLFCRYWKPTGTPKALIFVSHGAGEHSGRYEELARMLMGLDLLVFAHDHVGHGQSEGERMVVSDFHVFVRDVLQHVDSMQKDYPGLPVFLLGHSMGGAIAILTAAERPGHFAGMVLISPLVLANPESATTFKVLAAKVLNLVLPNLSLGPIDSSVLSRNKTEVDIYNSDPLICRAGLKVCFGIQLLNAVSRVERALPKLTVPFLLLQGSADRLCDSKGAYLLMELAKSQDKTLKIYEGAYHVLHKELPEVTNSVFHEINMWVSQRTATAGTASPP
# [3] = target: T3, mutant MGL (Homo sapiens, UniProt Q99685, L169S/L176S); assay: MGL ThermoFluor assay - mutant; type: binding
# T3 sequence (Q99685 1-303 L169S/L176S): T2 sequence (Q99685 1-303) with L169S, L176S
# Description: The ThermoFluor (TF) assay is a 384-well plate-based binding assay that measures thermal stability of proteins^1,2. […] TF dye used in all experiments was 1,8-ANS (Invitrogen: A-47). Final TF assay conditions used for MGL studies were 0.07 mg/ml of mutant MGL, 100 μM ANS, 200 mM NaCl, 0.001% Tween-20 in 50 mM PIPES (pH=7.0).
# Screening compound plates contained 100% DMSO compound solutions at a single concentration. […] Columns 12 and 24 were used as DMSO reference and contained no compound. […] Following compound dispension, protein and dye solutions were added to achieve the final assay volume of 3 μL.
# Bar-coded assay plates were robotically loaded onto a thermostatically controlled PCR-type thermal block and then heated from 40 to 90° C. degrees at a ramp-rate of 1° C./min for all experiments. Fluorescence was measured by continuous illumination with UV light (Hamamatsu LC6), supplied via fiber optics and filtered through a band-pass filter (380-400 nm; >60D cutoff). Fluorescence emission of the entire 384-well plate was detected by measuring light intensity using a CCD camera (Sensys, Roper Scientific) filtered to detect 500±25 nm, resulting in simultaneous and independent readings of all 384 wells. A single image with 20-sec exposure time was collected at each temperature, and the sum of the pixel intensity in a given area of the assay plate was recorded vs temperature and fit to standard equations to yield the Tm^1. • 1.
# For some experiments, quantitative NMR spectroscopy (qNMR) was used to measure concentration of the initial 100% DMSO compound solutions and, using the same fitting method, qKd values were determined
# [4] = ThermoFluor concentration-response, read-out: MGL mutant ThermoFluor Kd
# [5] = ThermoFluor thermal stability binding assay, read-out: MGL mutant ThermoFluor Kd
# [6] = ThermoFluor, compound concentration measured by qNMR, read-out: MGL mutant ThermoFluor qKd (using qNMR conc.)
# [7] = ThermoFluor, compound concentration measured by qNMR, read-out: MGL mutant ThermoFluor qKd (μM) (using qNMR conc.)
SMILES,"2-AG accumulation, % of vehicle control at 1 µM [1]",IC50 [2],"Kd [3, 4]","Kd [3, 5]","Kd [3, 6]","2-AG accumulation, % of vehicle control at 10 µM [1]","Kd [3, 7]","2-AG accumulation, % of vehicle control at 0.1 µM [1]"
"O=C(c1ccc2c(-c3ccc(F)cc3)c[nH]c2c1)N1CC(N2CCN(C(=O)c3nccs3)CC2)C1 [Cpd 1317, 3-(4-Fluorophenyl)-6-({3-[4-(1,3-thiazol-2-ylcarbonyl)piperazin-1-yl]azetidin-1-yl}carbonyl)-1H-indole]",722%,< 5 nM,0.002 µM,–,–,–,–,–
CCCn1ccc2cc(C(=O)N3CC(N4CCN(C(=O)c5nccs5)CC4)C3)ccc21 [Cpd 687],698%,44 nM,0.004 µM,–,–,–,–,–
O=C(c1ccc(OCc2cncc(Cl)c2)cc1)N1CC(N2CCN(C(=O)c3nccs3)CC2)C1 [Cpd 978],570%,7 nM,–,0.066 µM,–,–,–,–
O=C(c1ccc(-n2nc3c(c2-c2cccc(C(F)(F)F)c2)CCC3)cc1)N1CC(N2CCN(C(=O)c3nccs3)CC2)C1 [Cpd 1330],589%,< 5 nM,0.002 µM,–,0.005 µM,–,–,–
"O=C(c1ccc2c(c1)Sc1ccccc1O2)N1CC(N2CCN(C(=O)c3ccc[nH]3)CC2)C1 [Cpd 678, 1-[1-(Phenoxathiin-2-ylcarbonyl)azetidin-3-yl]-4-(1H-pyrrol-2-ylcarbonyl)piperazine]",234%,22 nM,0.031 µM,–,–,–,–,–
"O=C(c1ccc(-c2ccc(F)cc2)cc1)N1CC(N2CCN(C(=O)c3cscn3)CC2)C1 [Cpd 225, 1-{1-[(4′-Fluorobiphenyl-4-yl)carbonyl]azetidin-3-yl}-4-(1,3-thiazol-4-ylcarbonyl)piperazine]",–,54.7 nM,–,0.02 µM,–,656%,–,–
O=C(c1ccc2c(c1)CCN2Cc1cccc(C(F)(F)F)c1)N1CC(N2CCN(C(=O)c3nccs3)CC2)C1 [Cpd 881],847%,< 5 nM,0.006 µM,–,–,–,–,–
CCCc1ccc(C(=O)N2CC(N3CCN(C(=O)c4nccs4)CC3)C2)cc1 [Cpd 655],359%,8 nM,0.029 µM,–,–,–,–,–
"COc1cc(C(=O)N2CC(N3CCN(C(=O)c4ccccc4)CC3)C2)ccc1-c1ccc(F)c(Cl)c1 [Cpd 263, 1-{1-[(3′-Chloro-4′-fluoro-2-methoxybiphenyl-4-yl)carbonyl]azetidin-3-yl}-4-(phenylcarbonyl)piperazine]",199%,28.5 nM,–,0.005 µM,–,–,–,–
"O=C(c1ccc(-c2ccccc2)s1)N1CC(N2CCN(C(=O)c3nccs3)CC2)C1 [Cpd 1122, 1-{1-[(5-Phenylthiophen-2-yl)carbonyl]azetidin-3-yl}-4-(1,3-thiazol-2-ylcarbonyl)piperazine]",143%,18 nM,0.027 µM,–,–,–,–,–
Cn1cc(I)c2ccc(C(=O)N3CC(N4CCN(C(=O)c5nccs5)CC4)C3)cc21 [Cpd 701],475%,77 nM,0.008 µM,–,–,–,–,–
Cc1cc(C(=O)N2CC(N3CCN(C(=O)c4nccs4)CC3)C2)sc1-c1cccc(C(F)(F)F)c1 [Cpd 1354],750%,< 5 nM,–,–,–,–,0.009 µM,–
"O=C(c1cc2cc(C(F)(F)F)ccc2s1)N1CCN(C2CN(C(=O)c3nccs3)C2)CC1 [Cpd 676, 1-[1-(1,3-Thiazol-2-ylcarbonyl)azetidin-3-yl]-4-{[5-(trifluoromethyl)-1-benzothiophen-2-yl]carbonyl}piperazine]",437%,21 nM,0.029 µM,–,–,–,–,–
Cc1c(C(=O)N2CC(N3CCN(C(=O)c4ccccc4)CC3)C2)sc2cc(C(F)(F)F)ccc12 [Cpd 505],236%,39 nM,0.01 µM,–,–,–,–,–
O=C(c1cc(-c2ccc(F)cc2)cs1)N1CC(N2CCN(C(=O)c3nccs3)CC2)C1 [Cpd 1157],252%,41 nM,–,–,–,–,0.179 µM,–
Cc1cc(C(=O)N2CC(N3CCN(C(=O)c4nccs4)CC3)C2)sc1-c1cccc(F)c1 [Cpd 1065],531%,7 nM,–,–,–,–,0.036 µM,–

SMILES,"2-AG accumulation, % of vehicle control at 1 µM [1]",IC50 [2],"Kd [3, 4]","Kd [3, 5]","Kd [3, 6]","2-AG accumulation, % of vehicle control at 10 µM [1]","Kd [3, 7]","2-AG accumulation, % of vehicle control at 0.1 µM [1]"
O=C(c1cscn1)N1CCN(C2CN(C(=O)c3sc4cc(F)c(C(F)(F)F)cc4c3Cl)C2)CC1 [Cpd 659],576%,9 nM,–,–,–,–,0.006 µM,–
O=C(c1nccs1)N1CCN(C2CN(C(=O)c3ccc(-c4ccccc4)cc3Cl)C2)CC1 [Cpd 1323],297%,< 5 nM,0.004 µM,–,–,–,–,–
"O=C(c1ccc2c(ccn2-c2ncccn2)c1)N1CC(N2CCN(C(=O)c3cscn3)CC2)C1 [Cpd 1201, 1-Pyrimidin-2-yl-5-({3-[4-(1,3-thiazol-4-ylcarbonyl)piperazin-1-yl]azetidin-1-yl}carbonyl)-1H-indole]",475%,151 nM,0.179 µM,–,–,–,–,–
O=C(c1ccc(-c2nc(-c3ccc(Cl)c(Cl)c3)cs2)cc1)N1CC(N2CCN(C(=O)c3nccs3)CC2)C1 [Cpd 1331],803%,< 5 nM,–,–,0.01 µM,–,–,–
O=C(c1ccc2c(c1)CCN(c1ccccn1)C2)N1CC(N2CCN(C(=O)c3nccs3)CC2)C1 [Cpd 661],764%,10 nM,–,0.047 µM,–,–,–,–
O=C(c1nccs1)N1CCN(C2CN(C(=O)c3sc4ccc5ccccc5c4c3Cl)C2)CC1 [Cpd 890],823%,< 5 nM,0.001 µM,–,–,–,–,–
O=C(c1ccc2cc(-c3ccccc3)[nH]c2c1)N1CC(N2CCN(C(=O)c3nccs3)CC2)C1 [Cpd 1333],824%,< 5 nM,–,–,0.04 µM,–,–,–
"Cc1ccc2sc(C(=O)N3CC(N4CCN(C(=O)c5nccs5)CC4)C3)c(C(F)(F)F)c2c1 [Cpd 691, 1-(1-{[5-Methyl-3-(trifluoromethyl)-1-benzothiophen-2-yl]carbonyl}azetidin-3-yl)-4-(1,3-thiazol-2-ylcarbonyl)piperazine]",840%,46 nM,0.004 µM,–,–,–,–,–
N#Cc1ccccc1-n1ccc2cc(C(=O)N3CC(N4CCN(C(=O)c5cscn5)CC4)C3)ccc21 [Cpd 1182],547%,79 nM,–,–,–,–,0.21 µM,–
Cc1c(C(=O)N2CC(N3CCN(C(=O)c4cscn4)CC3)C2)sc2ccc(C(F)(F)F)cc12 [Cpd 898],520%,< 5 nM,–,0.009 µM,–,–,–,–
O=C(c1ccc2nc(-c3ccc(F)c(F)c3)oc2c1)N1CC(N2CCN(C(=O)c3nccs3)CC2)C1 [Cpd 1077],667%,8 nM,–,–,–,–,0.02 µM,–
Cc1c(C(=O)N2CC(N3CCN(C(=O)c4nccs4)CC3)C2)sc2cc(F)ccc12 [Cpd 684],645%,31 nM,–,0.004 µM,–,–,–,–
O=C(c1ccc2c(ccn2-c2ccc(F)cc2)n1)N1CC(N2CCN(C(=O)c3nccs3)CC2)C1 [Cpd 1153],404%,39 nM,–,–,–,–,0.004 µM,–
"O=C(c1cscn1)N1CCN(C2CN(C(=O)c3ccc(-c4cccc(C(F)(F)F)c4)cc3F)C2)CC1 [Cpd 245, 1-(1-{[3-Fluoro-3′-(trifluoromethyl)biphenyl-4-yl]carbonyl}azetidin-3-yl)-4-(1,3-thiazol-4-ylcarbonyl)piperazine]",518%,16.4 nM,–,0.0095 µM,–,829%,–,224%
Cc1nc(-c2ccc(F)cc2)sc1C(=O)N1CC(N2CCN(C(=O)c3nccs3)CC2)C1 [Cpd 1150],459%,36 nM,0.013 µM,–,–,715%,–,139%
COc1cc(C(=O)N2CC(N3CCN(C(=O)c4cscn4)CC3)C2)ccc1-c1ccccc1 [Cpd 1253],190%,725 nM,0.088 µM,–,–,407%,–,110%
